Reference: the NIST ThermoML archive (doi:10.1016/j.fluid.2011.01.021)
Numbers after ± are expanded uncertainties.

Key:
[1] = 298.15 K; 101.33 kPa; Liquid; Vibrating tube method
[2] = refractive index (Na D-line) (dimensionless); conditions: 298.15 K; 101.33 kPa; Liquid; Standard Abbe refractometry

Which results are given for `CCOS(=O)(=O)[O-].CCn1cc[n+](C)c1` [1-ethyl-3-methylimidazolium ethyl sulfate]?
mass density [1]: 1237.23 ± 0.43 kg/m3; refractive index [2]: 1.4791 ± 0.0007
